According to the supplement of paper PMC10307832:

Key:
Experiment in all cases: relative viability (nuclei count vs DMSO), 5 days (fraction); higher = more cells survive
[1] = compound: O=C(NCCCNc1nc(Nc2cccc(NC(=O)N3CCCC3)c2)ncc1I)c1cccs1 [BX 795] + COc1cccc2cc(-c3nc([C@H]4CC[C@H](C(=O)O)CC4)n4ncnc(N)c34)[nH]c12 [OSI-027] (partner 0.5 µM)
In short: (§1)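 Nuclei were stained with Hoechst during a one-step fixation (final 0.05% Triton X-100, 1% formaldehyde, 1 ug/ml Hoechst) carried out 5 days after dosing, then counted on 4× images. The cells, lung cancer lines in 1536-well plates, had been dosed by pin tool the day after seeding with one drug alone or a fixed anchor-drug dose plus five library-drug doses (not always all listed) in √10 steps. Relative viability is the nuclei count in treated wells divided by that in vehicle wells, and each value is the median of duplicate plates.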

[2] = compound: O=C(NCCCNc1nc(Nc2cccc(NC(=O)N3CCCC3)c2)ncc1I)c1cccs1 [BX 795] + CS(=O)(=O)CCNCc1ccc(-c2ccc3ncnc(Nc4ccc(OCc5cccc(F)c5)c(Cl)c4)c3c2)o1 [Lapatinib] (partner 2 µM)
In short: as §1

[3] = compound: O=C(NCCCNc1nc(Nc2cccc(NC(=O)N3CCCC3)c2)ncc1I)c1cccs1 [BX 795] + C[C@]1(O)C[C@@H](c2nc(-c3ccc4ccc(-c5ccccc5)nc4c3)c3c(N)nccn32)C1 [Linsitinib] (partner 1 µM)
In short: as §1

[4] = compound: O=C(NCCCNc1nc(Nc2cccc(NC(=O)N3CCCC3)c2)ncc1I)c1cccs1 [BX 795] + Cc1nc(Nc2ncc(C(=O)Nc3c(C)cccc3Cl)s2)cc(N2CCN(CCO)CC2)n1 [Dasatinib] (partner 0.075 µM)
In short: as §1

[5] = compound: O=C(NCCCNc1nc(Nc2cccc(NC(=O)N3CCCC3)c2)ncc1I)c1cccs1 [BX 795] + NC(=O)Nc1cc(-c2cccc(F)c2)sc1C(=O)N[C@H]1CCCNC1 [AZD7762] (partner 0.2 µM)
In short: as §1

| Cell Line | relative viability ([1]; first compound 0.04 µM) | relative viability ([1]; first compound 0.1265 µM) | relative viability ([1]; first compound 0.4 µM) | relative viability ([1]; first compound 1.265 µM) | relative viability ([2]; first compound 0.04 µM) | relative viability ([2]; first compound 0.1265 µM) | relative viability ([2]; first compound 0.4 µM) | relative viability ([2]; first compound 1.265 µM) | relative viability ([3]; first compound 0.04 µM) | relative viability ([3]; first compound 0.1265 µM) | relative viability ([3]; first compound 0.4 µM) | relative viability ([3]; first compound 1.265 µM) | relative viability ([4]; first compound 0.04 µM) | relative viability ([4]; first compound 0.1265 µM) | relative viability ([4]; first compound 0.4 µM) | relative viability ([4]; first compound 1.265 µM) | relative viability ([5]; first compound 0.04 µM) | relative viability ([5]; first compound 0.1265 µM) | relative viability ([5]; first compound 0.4 µM) | relative viability ([5]; first compound 1.265 µM) |
| --- | --- | --- | --- | --- | --- | --- | --- | --- | --- | --- | --- | --- | --- | --- | --- | --- | --- | --- | --- | --- |
| NCI-H1355 | 0.407 | 0.405 | 0.44 | 0.379 | 1.05 | 0.976 | 1.11 | 0.946 | 0.768 | 0.869 | 0.811 | 0.65 | 0.763 | 0.659 | 0.684 | 0.664 | 0.784 | 0.607 | 0.734 | 0.69 |
| NCI-H2009 | 0.612 | 0.595 | 0.604 | 0.386 | 0.912 | 0.86 | 0.988 | 0.671 | 1.27 | 1.19 | 1.19 | 0.871 | 0.261 | 0.292 | 0.249 | 0.162 | – | – | – | – |
| HCC-827 | 0.839 | 0.81 | 0.933 | 0.763 | 0.186 | 0.18 | 0.215 | 0.191 | 0.972 | 0.849 | 0.987 | 0.75 | 0.334 | 0.375 | 0.307 | 0.414 | 0.206 | 0.224 | 0.211 | 0.221 |
| NCI-H2085 | 0.732 | 0.817 | 0.73 | 0.648 | 0.881 | 0.781 | 0.741 | 0.642 | 0.883 | 0.961 | 1.04 | 0.737 | 0.25 | 0.214 | 0.221 | 0.249 | 0.895 | 0.932 | 0.947 | 0.957 |
| ChaGo-K-1 | 0.632 | 0.553 | 0.548 | 0.432 | – | – | – | – | – | – | – | – | 0.5 | 0.586 | 0.507 | 0.546 | 0.797 | 0.864 | 0.858 | 0.815 |
| NCI-H522 | 0.801 | 0.71 | 0.769 | 0.685 | – | – | – | – | – | – | – | – | 0.972 | 0.769 | 0.764 | 0.849 | 0.716 | 0.811 | 0.777 | 0.785 |
| NCI-H661 | 0.514 | 0.688 | 0.554 | 0.511 | 0.564 | 0.576 | 0.359 | 0.402 | 0.615 | 0.641 | 0.34 | 0.433 | 0.9 | 0.938 | 0.501 | 0.515 | – | – | – | – |
| SW 900 | 0.679 | 0.521 | 0.487 | 0.423 | – | – | – | – | – | – | – | – | 0.737 | 0.541 | 0.414 | 0.259 | 0.55 | – | 0.619 | 0.633 |
| UMC-11 | 0.469 | 0.43 | 0.371 | 0.27 | 0.949 | 1.05 | 0.757 | 0.333 | 0.751 | 1.02 | 0.95 | 0.348 | 0.412 | 0.407 | 0.291 | 0.169 | – | – | – | – |
| HCC-44 | 0.483 | 0.472 | 0.564 | 0.45 | 0.934 | 1.01 | 0.981 | 1.04 | 0.648 | 0.668 | 0.787 | 0.426 | – | – | – | – | 0.976 | 1 | 1.09 | 1.09 |
| NCI-H2228 | 0.483 | 0.641 | 0.471 | 0.265 | 0.87 | 1.3 | 0.791 | 0.319 | 1.25 | 0.643 | 0.662 | 0.474 | 0.568 | 0.594 | 0.388 | 0.32 | – | – | – | – |
| NCI-H520 | 0.226 | 0.255 | 0.19 | 0.201 | 0.38 | 0.778 | 0.672 | 0.301 | 0.746 | 1.06 | 0.859 | 0.359 | 0.199 | 0.194 | 0.376 | 0.162 | – | – | – | – |
| NCI-H441 | 0.731 | 0.57 | 0.891 | 0.399 | – | – | – | – | 0.667 | 0.528 | 0.854 | 0.326 | 0.695 | 0.7 | 0.587 | 0.459 | 1.23 | 1.21 | 1.07 | 0.866 |
| NCI-H2023 | 0.272 | 0.398 | 0.173 | 0.182 | 0.538 | 0.749 | 0.32 | 0.522 | 0.572 | 0.71 | 0.445 | 0.314 | 0.5 | 0.54 | 0.306 | 0.302 | – | – | – | – |
| LCLC-103H | 0.476 | 0.528 | 0.488 | 0.501 | – | – | – | – | 1.12 | 1.16 | 0.901 | 1.09 | 0.55 | 0.481 | 0.553 | 0.412 | 0.706 | 0.878 | 0.712 | 0.849 |
| NCI-H1650 | 0.687 | 0.703 | 0.53 | 0.414 | 0.938 | 0.737 | 0.671 | 0.521 | – | – | – | – | 0.317 | 0.276 | 0.291 | 0.258 | – | – | – | – |
| SW 1573 | 0.684 | 0.686 | 0.614 | 0.322 | 1.13 | 1.18 | 1.26 | 0.781 | 0.962 | 0.873 | 1.02 | 0.629 | 0.512 | 0.456 | 0.452 | 0.161 | – | – | – | – |
| NCI-H2170 | 0.725 | 0.643 | 0.791 | 0.674 | 0.26 | 0.28 | 0.262 | 0.289 | – | – | – | – | 0.594 | 0.517 | 0.476 | 0.64 | 0.874 | 1.09 | 0.812 | 0.791 |
| NCI-H2342 | 0.66 | 0.569 | 0.591 | 0.637 | – | – | – | – | – | – | – | – | 0.307 | 0.319 | 0.287 | 0.312 | 0.591 | 0.538 | 0.481 | 0.399 |
| SK-MES-1 | 0.471 | 0.548 | 0.224 | 0.299 | 0.509 | 0.45 | 0.458 | 0.385 | 1.11 | 0.985 | 0.992 | 0.745 | 0.416 | 0.453 | 0.164 | 0.223 | – | – | – | – |
